The values that follow come from ChEMBL document CHEMBL1667854, “6''-Azido-6''-deoxy-UDP-N-acetylglucosamine as a glycosyltransferase substrate” (Bioorg Med Chem Lett, 2011).

Calls of active or inactive are those of the source. The calls are words filed in the database; no cut-off is given here.

This test has as its target T1, UDP-N-acetylglucosamine--peptide N-acetylglucosaminyltransferase 110 kDa subunit (Homo sapiens) (UniProt O15294).
T1 sequence (whole entry): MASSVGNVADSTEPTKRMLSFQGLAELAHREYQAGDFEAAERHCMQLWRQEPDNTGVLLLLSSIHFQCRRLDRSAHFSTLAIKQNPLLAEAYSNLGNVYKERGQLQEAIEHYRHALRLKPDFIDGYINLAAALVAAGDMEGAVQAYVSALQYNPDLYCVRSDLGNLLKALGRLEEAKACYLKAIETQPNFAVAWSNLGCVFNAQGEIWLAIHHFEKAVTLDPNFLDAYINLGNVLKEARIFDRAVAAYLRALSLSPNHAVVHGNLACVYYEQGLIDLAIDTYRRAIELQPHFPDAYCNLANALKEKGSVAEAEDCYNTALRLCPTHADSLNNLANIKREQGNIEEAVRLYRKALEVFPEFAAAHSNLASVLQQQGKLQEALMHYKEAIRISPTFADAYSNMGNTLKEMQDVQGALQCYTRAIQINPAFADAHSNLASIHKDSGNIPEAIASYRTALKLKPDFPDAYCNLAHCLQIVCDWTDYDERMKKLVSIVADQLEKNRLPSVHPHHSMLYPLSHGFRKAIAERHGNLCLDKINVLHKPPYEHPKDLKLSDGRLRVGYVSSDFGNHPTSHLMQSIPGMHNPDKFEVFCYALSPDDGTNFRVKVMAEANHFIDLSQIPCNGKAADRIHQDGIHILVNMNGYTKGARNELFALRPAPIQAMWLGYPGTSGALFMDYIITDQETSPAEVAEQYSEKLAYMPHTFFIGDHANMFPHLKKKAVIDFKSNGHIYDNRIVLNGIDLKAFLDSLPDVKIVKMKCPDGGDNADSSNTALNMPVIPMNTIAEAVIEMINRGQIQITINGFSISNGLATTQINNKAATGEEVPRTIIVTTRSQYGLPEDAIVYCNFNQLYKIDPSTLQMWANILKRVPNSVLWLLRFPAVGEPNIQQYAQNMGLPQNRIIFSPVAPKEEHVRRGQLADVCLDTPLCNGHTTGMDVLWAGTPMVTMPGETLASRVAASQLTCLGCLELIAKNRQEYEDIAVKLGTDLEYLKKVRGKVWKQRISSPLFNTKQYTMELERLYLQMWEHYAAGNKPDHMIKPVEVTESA
The experiment in a line: Activity at human OGT by Western blot analysis.

With `CC(=O)N[C@H]1[C@@H](OP(=O)(O)OP(=O)(O)OC[C@H]2O[C@@H](n3ccc(=O)[nH]c3=O)[C@H](O)[C@@H]2O)O[C@H](CN=[N+]=[N-])[C@@H](O)[C@@H]1O`, the result was Active.

For `CC(=O)N[C@@H]1[C@@H](O)[C@H](O)[C@@H](CN=[N+]=[N-])O[C@@H]1O`, the outcome was Active.
